# How the values were obtained:
# Experiment in all cases: relative viability (nuclei count vs DMSO), 5 days (fraction); higher = more cells survive
# EMC-BAC-2 = tested on: EMC-BAC-2
# Summary of the method: (§1)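 One day after seeding in 1536-well plates, lung cancer cell lines were dosed by pin tool. Dosing was either single-drug or a fixed anchor-drug dose plus five library-drug doses (not always all listed) in √10 steps. After 5 days, nuclei were stained in one fix-and-stain step and counted on 4× images, and relative viability is the nuclei count of treated wells over that of vehicle wells, given as the median of duplicate plates.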
# EPLC-272H = tested on: EPLC-272H
# Summary of the method: as §1
# H3255 = tested on: H3255
# Summary of the method: as §1
# HOP-62 = tested on: HOP-62
# Summary of the method: as §1
# LCLC-97TM1 = tested on: LCLC-97TM1
# Summary of the method: as §1
# LXF-289 = tested on: LXF-289
# Summary of the method: as §1
# NCI-H1563 = tested on: NCI-H1563
# Summary of the method: as §1
# NCI-H1734 = tested on: NCI-H1734
# Summary of the method: as §1
# NCI-H1915 = tested on: NCI-H1915
# Summary of the method: as §1
# NCI-H1993 = tested on: NCI-H1993
# Summary of the method: as §1
# NCI-H2009 = tested on: NCI-H2009
# Summary of the method: as §1
# NCI-H2023 = tested on: NCI-H2023
# Summary of the method: as §1
# NCI-H2085 = tested on: NCI-H2085
# Summary of the method: as §1
# NCI-H2126 = tested on: NCI-H2126
# Summary of the method: as §1
# NCI-H2347 = tested on: NCI-H2347
# Summary of the method: as §1
# NCI-H322M = tested on: NCI-H322M
# Summary of the method: as §1
# NCI-H647 = tested on: NCI-H647
# Summary of the method: as §1
# NCI-H661 = tested on: NCI-H661
# Summary of the method: as §1
# NCI-H727 = tested on: NCI-H727
# Summary of the method: as §1
# PC-14 = tested on: PC-14
# Summary of the method: as §1
# SK-LU-1 = tested on: SK-LU-1
# Summary of the method: as §1
# SW 1573 = tested on: SW 1573
# Summary of the method: as §1
compound,measurement,setting,value
CC(=O)O[C@@]12CO[C@@H]1C[C@H](O)[C@@]1(C)C(=O)[C@H](O)C3=C(C)[C@@H](OC(=O)[C@H](O)[C@@H](NC(=O)OC(C)(C)C)c4ccccc4)C[C@@](O)([C@@H](OC(=O)c4ccccc4)[C@H]21)C3(C)C [Docetaxel] + Cc1nc(NC(=O)N2CCC[C@H]2C(N)=O)sc1-c1ccnc(C(C)(C)C(F)(F)F)c1 [Alpelisib] (partner 2 µM),relative viability,EMC-BAC-2; first compound 0.0002 µM,0.694
same,relative viability,EMC-BAC-2; first compound 0.000632 µM,0.626
same,relative viability,EMC-BAC-2; first compound 0.002 µM,0.385
same,relative viability,EMC-BAC-2; first compound 0.006325 µM,0.246
same,relative viability,EMC-BAC-2; first compound 0.02 µM,0.154
same,relative viability,EPLC-272H; first compound 0.0002 µM,0.928
same,relative viability,EPLC-272H; first compound 0.000632 µM,0.741
same,relative viability,EPLC-272H; first compound 0.002 µM,0.43
same,relative viability,EPLC-272H; first compound 0.006325 µM,0.147
same,relative viability,EPLC-272H; first compound 0.02 µM,0.106
same,relative viability,H3255; first compound 0.0002 µM,0.572
same,relative viability,H3255; first compound 0.000632 µM,0.722
same,relative viability,H3255; first compound 0.002 µM,0.348
same,relative viability,H3255; first compound 0.006325 µM,0.251
same,relative viability,HOP-62; first compound 0.0002 µM,0.899
same,relative viability,HOP-62; first compound 0.000632 µM,0.526
same,relative viability,LCLC-97TM1; first compound 0.000632 µM,0.222
same,relative viability,LCLC-97TM1; first compound 0.002 µM,0.121
same,relative viability,LCLC-97TM1; first compound 0.006325 µM,0.154
same,relative viability,LCLC-97TM1; first compound 0.02 µM,0.0979
same,relative viability,LXF-289; first compound 0.0002 µM,1.09
same,relative viability,LXF-289; first compound 0.000632 µM,0.577
same,relative viability,LXF-289; first compound 0.002 µM,0.59
same,relative viability,LXF-289; first compound 0.006325 µM,0.119
same,relative viability,LXF-289; first compound 0.02 µM,0.0912
same,relative viability,NCI-H1563; first compound 0.0002 µM,0.879
same,relative viability,NCI-H1563; first compound 0.000632 µM,0.926
same,relative viability,NCI-H1563; first compound 0.002 µM,0.809
same,relative viability,NCI-H1563; first compound 0.006325 µM,0.807
same,relative viability,NCI-H1563; first compound 0.02 µM,0.55
same,relative viability,NCI-H1734; first compound 0.0002 µM,0.614
same,relative viability,NCI-H1734; first compound 0.000632 µM,0.67
same,relative viability,NCI-H1734; first compound 0.002 µM,0.406
same,relative viability,NCI-H1734; first compound 0.006325 µM,0.355
same,relative viability,NCI-H1734; first compound 0.02 µM,0.267
same,relative viability,NCI-H1915; first compound 0.0002 µM,1.02
same,relative viability,NCI-H1915; first compound 0.000632 µM,0.971
same,relative viability,NCI-H1915; first compound 0.002 µM,0.52
same,relative viability,NCI-H1915; first compound 0.006325 µM,0.183
same,relative viability,NCI-H1915; first compound 0.02 µM,0.135
same,relative viability,NCI-H1993; first compound 0.0002 µM,0.727
same,relative viability,NCI-H1993; first compound 0.000632 µM,0.62
same,relative viability,NCI-H1993; first compound 0.002 µM,0.741
same,relative viability,NCI-H1993; first compound 0.006325 µM,0.525
same,relative viability,NCI-H1993; first compound 0.02 µM,0.454
same,relative viability,NCI-H2009; first compound 0.0002 µM,1.13
same,relative viability,NCI-H2009; first compound 0.000632 µM,1.16
same,relative viability,NCI-H2009; first compound 0.002 µM,0.988
same,relative viability,NCI-H2009; first compound 0.006325 µM,0.765
same,relative viability,NCI-H2009; first compound 0.02 µM,0.157
same,relative viability,NCI-H2023; first compound 0.0002 µM,0.49
same,relative viability,NCI-H2023; first compound 0.000632 µM,0.553
same,relative viability,NCI-H2023; first compound 0.002 µM,0.128
same,relative viability,NCI-H2023; first compound 0.006325 µM,0.137
same,relative viability,NCI-H2023; first compound 0.02 µM,0.0735
same,relative viability,NCI-H2085; first compound 0.0002 µM,0.93
same,relative viability,NCI-H2085; first compound 0.000632 µM,0.905
same,relative viability,NCI-H2085; first compound 0.002 µM,0.697
same,relative viability,NCI-H2085; first compound 0.006325 µM,0.609
same,relative viability,NCI-H2085; first compound 0.02 µM,0.378
same,relative viability,NCI-H2126; first compound 0.0002 µM,0.781
same,relative viability,NCI-H2126; first compound 0.000632 µM,0.753
same,relative viability,NCI-H2126; first compound 0.002 µM,0.541
same,relative viability,NCI-H2126; first compound 0.006325 µM,0.321
same,relative viability,NCI-H2126; first compound 0.02 µM,0.231
same,relative viability,NCI-H2347; first compound 0.0002 µM,1.01
same,relative viability,NCI-H2347; first compound 0.000632 µM,1.1
same,relative viability,NCI-H2347; first compound 0.002 µM,0.666
same,relative viability,NCI-H2347; first compound 0.006325 µM,0.525
same,relative viability,NCI-H2347; first compound 0.02 µM,0.438
same,relative viability,NCI-H322M; first compound 0.0002 µM,0.908
same,relative viability,NCI-H322M; first compound 0.000632 µM,0.869
same,relative viability,NCI-H322M; first compound 0.002 µM,0.618
same,relative viability,NCI-H322M; first compound 0.006325 µM,0.533
same,relative viability,NCI-H322M; first compound 0.02 µM,0.181
same,relative viability,NCI-H647; first compound 0.0002 µM,0.903
same,relative viability,NCI-H647; first compound 0.000632 µM,0.347
same,relative viability,NCI-H647; first compound 0.002 µM,0.189
same,relative viability,NCI-H647; first compound 0.006325 µM,0.0725
same,relative viability,NCI-H647; first compound 0.02 µM,0.0507
same,relative viability,NCI-H661; first compound 0.0002 µM,0.468
same,relative viability,NCI-H661; first compound 0.000632 µM,0.582
same,relative viability,NCI-H661; first compound 0.002 µM,0.411
same,relative viability,NCI-H661; first compound 0.006325 µM,0.344
same,relative viability,NCI-H661; first compound 0.02 µM,0.176
same,relative viability,NCI-H727; first compound 0.0002 µM,0.583
same,relative viability,NCI-H727; first compound 0.000632 µM,0.639
same,relative viability,NCI-H727; first compound 0.002 µM,0.369
same,relative viability,NCI-H727; first compound 0.006325 µM,0.298
same,relative viability,NCI-H727; first compound 0.02 µM,0.23
same,relative viability,PC-14; first compound 0.0002 µM,0.895
same,relative viability,PC-14; first compound 0.000632 µM,0.998
same,relative viability,PC-14; first compound 0.002 µM,0.354
same,relative viability,PC-14; first compound 0.006325 µM,0.11
same,relative viability,PC-14; first compound 0.02 µM,0.0576
same,relative viability,SK-LU-1; first compound 0.0002 µM,0.766
same,relative viability,SK-LU-1; first compound 0.000632 µM,0.467
same,relative viability,SK-LU-1; first compound 0.002 µM,0.495
same,relative viability,SK-LU-1; first compound 0.006325 µM,0.26
same,relative viability,SK-LU-1; first compound 0.02 µM,0.228
same,relative viability,SW 1573; first compound 0.0002 µM,0.739
same,relative viability,SW 1573; first compound 0.000632 µM,0.604
same,relative viability,SW 1573; first compound 0.002 µM,0.29
same,relative viability,SW 1573; first compound 0.006325 µM,0.233
same,relative viability,SW 1573; first compound 0.02 µM,0.185
